Source: patent publication US10981881B2, “FXR (NR1H4) modulating compounds” (Gilead Sciences, Inc., priority 2016, dated 2021)

Assays:
[1] = Metabolite ID assay in human liver microsomes; assay type: in vitro ADME; settings: human liver microsomes 1 mg/mL, 1 mM NADPH, 0, 30, 60 minutes
Experimental: The metabolic stability of Example 3 and Comparative Example 1 in human liver microsomes was conducted according to the following procedure. Human liver microsomes (35 μL protein concentration 20 mg/mL), 350 μL of 100 mM potassium phosphate buffer (pH 7.4), 245 μL of deionized water and 0.7 μL of compound stock solution (5 mM) were combined in a 1.5 mL microcentrifuge tube. The tube was sealed and gently vortexed for 10 seconds, then placed in an Eppendorf ThermoMixer C and pre-warmed at 37° C. with shaking at 1100 rpm for 5 minutes.
NADPH solution (70 μL; 10 mM in water) was added while shaking, the mixture was aspirated several times with pipet, and 200 μL was removed to a fresh 1.5 mL microcentrifuge tube on ice containing 200 μL of cold acetonitrile. […]
The chilled aliquots were centrifuged at 14,300 rpm in a microcentrifuge for 10 minutes at 10° C., then the supernatant was transferred to a deepwell (1 mL) 96 well plate and sealed with a silicon mat. […] 20 μL samples were analyzed by UPLC-MS in order to identify and quantify the metabolites (Agilent 1290 G4220 binary pump UPLC with Agilent G1316 TCC column oven; Waters Acquity UPLC BEH C18 (130 Å pore size, 1.7 μm particle size, 2.1×50 mm) column held at 40° C.; Agilent 1290 G4212 DAD diode array with wavelength range 190 to 400 nm; Thermo Electron Orbitrap Elite mass spectrometer in FTMS positive mode). […]

[2] = system: FGF19; settings: cynomolgus monkey, in vivo, po, 300 mg/kg
Experimental: In vivo pharmacodynamics of a representative compound of Formula (I) and a comparative example compound were determined as follows.
Each dosing group consisted of three male Cynomolgus monkeys. At dosing, the animals weighed between 2.5 and 4.4 kg.
The test articles were administered to the monkeys via oral gavage at 5 mL/kg. Prior to withdrawal, the gavage tube was flushed with approximately 10 mL of water.
Venous blood samples were taken at specified time points after dosing from each animal. The blood samples were collected and transferred into tubes containing potassium (K2) EDTA anticoagulant.
The FGF19 ELISA assay kit from BioVendor (product number RD191107200R) was used to determine FGF19 concentrations in the collected blood samples.
An aliquot of 50 μL of each plasma sample from the 10 and 30 mg/kg dosing groups and the t=0 samples from the 100 and 300 mg/kg groups were treated with 200 μL of acetonitrile (ACN) containing internal standard. […] Samples exceeding the calibration range of the instrument were diluted and re-analyzed. […]
An API 5000 triple quadrupole mass spectrometer from AB Sciex, Foster City, Calif. was used in multiple reaction monitoring mode to quantify the compounds.

| Compound | formation of diol metabolite M1 [1] | maximal plasma AUC achieved [2] | plasma FGF19 Cmax ([2]; male) |
| --- | --- | --- | --- |
| O=C(O)c1cnc(N2CC(O)(c3ccc(OCc4c(-c5c(Cl)cccc5Cl)noc4C4CC4)cc3Cl)C2)c(F)c1 [Comparative Example 1] | metabolized to a diol compound (M1) | – | – |
| O=C(O)c1cnc(N2CC(O)(c3ccc(OCc4c(-c5c(Cl)cc(F)cc5Cl)noc4C4CC4)cc3Cl)C2)c(F)c1 [Example 3, 6-(3-(2-chloro-4-((5-cyclopropyl-3-(2,6-dichloro-4-fluorophenyl)isoxazol-4-yl)methoxy)phenyl)-3-hydroxyazetidin-1-yl)-5-fluoronicotinic acid] | – | comparable | 16 ng/mL |
